Experiment [1] concerns the target T1, PDE4B2: full-length human PDE4B2 isozyme (Homo sapiens, UniProt Q07343).
T1 construct: made in house; host or cells: baculovirus infected insect cells (pFastBacHT)
The experiment can be described thus: PDE4 IC50 determination by Scintillation Proximity Assay (SPA), full-length PDE4B2. The format is biochemical. The note with it: cell lysate, [3H]cAMP SPA. A digest of the protocol: (§1)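 Unpurified enzyme from cell lysates (PDE4B2 2.5 μl, PDE4D5 0.083 μl of 50% glycerol stock/ml) hydrolysing [3H]cAMP in 50 mM Tris pH 7.5, 8.3 mM MgCl, 1.7 mM EGTA, 0.01% BSA, 30 min at 30 °C. Stopped with yttrium silicate SPA beads in 18 mM ZnSO4; bead-bound [3H]AMP counted. IC50 by non-linear regression.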
Background: SPA uses beads or plates that emit light when radiolabelled molecules are held near them.

Experiment [2] has as its target T2, PDE4D: catalytic domain S316-V692 (Homo sapiens, UniProt Q08499).
T2 construct: pET15S PDE4D S316-V692-X; His6 (N, cleaved yes); thrombin cleavage site (N, cleaved yes); made in house; host or cells: E. coli BL21 (DE3) RIL
The experiment can be described thus: PDE4 IC50 determination by Scintillation Proximity Assay (SPA), PDE4D catalytic domain. The format is biochemical. As to conditions: [3H]cAMP SPA, 30 min at 30° C. How it is done: IC50s were determined by Scintillation Proximity Assay (SPA). The principle of the assay is based on the fact that cAMP, the PDE4 substrate, binds weakly to Yittrium Silicate SPA beads, whereas AMP, the product of PDE4 hydrolysis binds strongly. Thus, the extent of PDE4 hydrolysis of a sample of [^3H]cAMP can be measured because only the [^3H]AMP produced by PDE4 hydrolysis will bind to the SPA beads and produce a scintillation signal.
[…] Enzyme was stored in 50% glycerol at −20°. See Example 144.
Compounds tested (see Tables 5 for compounds and results) were 3-fold serially diluted 11 times in DMSO from a starting concentration of 4 mM or 40 μM, depending on compound potency. 1 μl of each dilution was transferred into duplicate wells of a white polystyrene 384-well assay plate (Corning #3710). In addition to the compound dilutions, each assay plate contained control wells with 1 μl of DMSO (to define 0% enzyme inhibition) or 1 μl of 200 μM roflumilast (to define 100% enzyme inhibition). Using a Beckman FX robot, 10 μl of [^3H] cAMP (Amersham TRK559) at […] in assay buffer (50 mM Tris, pH 7.5; 8.3 mM MgCl; 1.7 mM EGTA; 0.01% BSA) was transferred to each assay well. Next, 10 μl of PDE4 enzyme in assay buffer was added and the plates were shaken for 30 s. at 1000 rpm to start the cAMP hydrolysis reaction. The concentrations of enzyme used were: PDE4B, 80 ng/ml; PDE4D, 4 ng/ml; PDE4B2, 2.5 μl of 50% glycerol stock/ml; PDE4D5 0.083 μl of 50% glycerol stock/ml. Assay plates were covered and incubated for 30 min. at 30° C. Reactions were stopped by robotic addition of 10 μl of 5 mg/ml SPA beads (Amersham RPNQ0013) in 18 mM ZnSO4. The assay plates were covered with clear plastic film, centrifuged for 1 min. at 1000 RPM to settle the SPA beads, and counted using a Wallac TriLux scintillation counter. IC50's were calculated from the raw assay data by non-linear regression curve fitting using the Assay Explorer software package from MDL.

In experiment [3] the target is T3, PDE4B: catalytic domain of human PDE4B from S152-S528 (Homo sapiens, UniProt Q07343).
T3 construct: The catalytic domain of human PDE4B from S152-S528; His6 (N, cleaved yes); thrombin cleavage site (N, cleaved yes); made in house; host or cells: E. coli BL21 (DE3) RIL
T3 sequence (Q07343 324-700): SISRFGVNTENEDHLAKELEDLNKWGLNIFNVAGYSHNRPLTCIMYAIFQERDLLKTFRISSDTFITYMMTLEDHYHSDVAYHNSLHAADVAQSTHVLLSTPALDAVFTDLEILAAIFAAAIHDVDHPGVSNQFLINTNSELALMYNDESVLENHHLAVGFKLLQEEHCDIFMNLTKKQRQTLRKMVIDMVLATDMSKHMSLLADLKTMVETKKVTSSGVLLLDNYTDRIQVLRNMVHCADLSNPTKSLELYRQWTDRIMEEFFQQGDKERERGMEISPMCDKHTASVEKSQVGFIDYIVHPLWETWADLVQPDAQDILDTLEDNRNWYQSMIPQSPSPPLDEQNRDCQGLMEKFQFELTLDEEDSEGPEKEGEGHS
The experiment can be described thus: PDE4 IC50 determination by Scintillation Proximity Assay (SPA), PDE4B catalytic domain. The note with it: [3H]cAMP SPA, 30 min at 30° C. The format is biochemical. The procedure, abridged: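 Human PDE4B catalytic domain (80 ng/ml) hydrolysed [3H]cAMP in 50 mM Tris pH 7.5, 8.3 mM MgCl, 1.7 mM EGTA, 0.01% BSA for 30 min at 30 °C. Reaction was stopped with yttrium silicate SPA beads in 18 mM ZnSO4, and bound [3H]AMP was counted by scintillation. IC50 came from non-linear regression.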

Experiment [4] deals with T4, PDE4D5: full-length human PDE4D5 isozyme (Homo sapiens, UniProt Q08499).
T4 construct: made in house; host or cells: baculovirus infected insect cells (pFastBacHT)
T4 sequence (Q08499 with tags, fused parts or gaps isoform Q08499-6): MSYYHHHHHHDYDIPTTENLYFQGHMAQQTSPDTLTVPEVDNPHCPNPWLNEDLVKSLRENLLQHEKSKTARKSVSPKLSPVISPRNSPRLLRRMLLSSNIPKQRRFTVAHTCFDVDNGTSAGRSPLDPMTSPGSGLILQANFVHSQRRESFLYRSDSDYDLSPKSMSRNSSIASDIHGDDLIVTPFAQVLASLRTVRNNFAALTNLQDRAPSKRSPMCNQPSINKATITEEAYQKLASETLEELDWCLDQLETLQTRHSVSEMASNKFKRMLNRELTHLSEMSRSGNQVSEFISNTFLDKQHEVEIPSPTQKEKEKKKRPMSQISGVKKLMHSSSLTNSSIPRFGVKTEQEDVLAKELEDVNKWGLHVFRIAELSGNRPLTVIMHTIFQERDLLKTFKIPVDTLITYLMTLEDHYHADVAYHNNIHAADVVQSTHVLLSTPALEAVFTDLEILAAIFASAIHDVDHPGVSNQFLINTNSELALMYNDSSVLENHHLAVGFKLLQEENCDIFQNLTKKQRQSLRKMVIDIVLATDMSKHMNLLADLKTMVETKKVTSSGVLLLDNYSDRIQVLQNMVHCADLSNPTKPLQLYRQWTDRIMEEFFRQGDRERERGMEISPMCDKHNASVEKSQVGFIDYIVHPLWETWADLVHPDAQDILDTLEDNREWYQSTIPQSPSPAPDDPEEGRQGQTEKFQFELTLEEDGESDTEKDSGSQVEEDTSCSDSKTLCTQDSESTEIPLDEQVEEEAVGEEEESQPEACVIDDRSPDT
The experiment can be described thus: PDE4 IC50 determination by Scintillation Proximity Assay (SPA), full-length PDE4D5. The note with it: cell lysate, [3H]cAMP SPA. The format is biochemical. A digest of the protocol:
as §1

The subject of experiment [5] is TNF-α release from whole blood cultures stimulated with LPS. The experiment can be described thus: IC50 by TNF alpha production upon stimulation of whole blood cultures with LPS. The format is cell-based. The note with it: human whole blood (buffy coat) culture, 100 ng/ml LPS, 4 hours; read-out: h TNFα IC50. A digest of the protocol: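 Human buffy coat, diluted with 7 volumes of RPMI/2.5% heat-inactivated FBS, was preincubated with compound (8-point 1:3 series) for 1 h at 37 °C. It was then stimulated with 100 ng/ml LPS (final) for 4 h. Supernatant TNF-α was measured by sandwich ELISA at 450 nm, and IC50 was set between DMSO (0%) and PDE4-inhibitor (100%) controls.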

T1 sequence (Q07343 with tags, fused parts or gaps isoform Q07343-2): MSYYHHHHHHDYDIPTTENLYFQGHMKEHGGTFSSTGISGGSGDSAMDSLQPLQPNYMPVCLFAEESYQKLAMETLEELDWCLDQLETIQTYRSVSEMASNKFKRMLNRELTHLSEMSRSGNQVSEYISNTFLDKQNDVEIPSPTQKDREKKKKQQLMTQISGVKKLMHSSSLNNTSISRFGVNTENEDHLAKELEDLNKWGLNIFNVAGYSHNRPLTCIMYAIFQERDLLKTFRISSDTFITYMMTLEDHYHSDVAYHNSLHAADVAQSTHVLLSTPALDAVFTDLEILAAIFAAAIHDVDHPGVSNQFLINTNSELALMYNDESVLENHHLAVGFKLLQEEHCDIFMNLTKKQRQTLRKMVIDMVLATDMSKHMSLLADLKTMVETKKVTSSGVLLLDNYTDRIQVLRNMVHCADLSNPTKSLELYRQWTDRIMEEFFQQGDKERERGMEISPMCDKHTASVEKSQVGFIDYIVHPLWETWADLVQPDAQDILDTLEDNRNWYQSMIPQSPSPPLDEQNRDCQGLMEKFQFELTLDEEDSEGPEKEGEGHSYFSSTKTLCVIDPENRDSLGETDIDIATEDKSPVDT
T2 sequence (Q08499 380-756): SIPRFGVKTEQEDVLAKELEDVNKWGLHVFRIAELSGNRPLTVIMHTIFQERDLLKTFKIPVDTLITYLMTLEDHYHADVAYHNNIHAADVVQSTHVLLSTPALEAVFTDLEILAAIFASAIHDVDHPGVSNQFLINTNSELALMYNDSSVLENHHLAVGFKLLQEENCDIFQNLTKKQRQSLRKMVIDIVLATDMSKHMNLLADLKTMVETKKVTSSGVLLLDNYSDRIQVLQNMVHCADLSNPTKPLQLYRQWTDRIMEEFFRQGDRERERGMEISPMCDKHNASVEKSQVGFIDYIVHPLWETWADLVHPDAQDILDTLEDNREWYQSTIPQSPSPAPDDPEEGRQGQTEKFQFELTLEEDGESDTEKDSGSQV

As a reminder, the IC50 is the concentration that gives 50% inhibition. On to `COc1ccc(-c2cn(C(=O)c3c(OCC(F)(F)F)ccc4ccccc34)c3ncccc23)cc1OC1CCCC1` [Compound 124, [3-(3-Cyclopentyloxy-4-methoxy-phenyl)-pyrrolo[2,3-b]pyridin-1-yl]-[2-(2,2,2-trifluoro-ethoxy)-naphthalen-1-yl]-methanone], for which the IC50 in experiment [1] is < 10 µM; in experiment [2] it was ≤ 10 µM; in experiment [3], < 10 µM; in experiment [4] it was < 10 µM.

Regarding `CCOC(=O)c1cccc(NC(=O)n2cc(-c3ccc(OC)c(OC)c3)c3cccnc32)c1` [Compound 30, 3-[3-(3,4-Dimethoxy-phenyl)-pyrrolo[2,3-b]pyridine-1-carbonyl]-amino-benzoic acid ethyl ester], the 50% inhibitory concentration (IC50) is < 10 µM in experiment [1], ≤ 10 µM in experiment [2], < 10 µM in experiment [3] and < 10 µM in experiment [4].

For the compound `COc1ccc(-c2cn(Cc3cc(-c4ccccc4)no3)c3ncccc23)cc1OC` [Compound 104, 3-(3,4-Dimethoxy-phenyl)-1-(3-phenyl-isoxazol-5-ylmethyl)-1H-pyrrolo[2,3-b]pyridine], the IC50 is < 10 µM in experiment [1], ≤ 10 µM in experiment [2], < 10 µM in experiment [3] and < 10 µM in experiment [4].

Take `COc1ccc2c(c1)c(-c1ccc(OC)c(OC3CCCC3)c1)cn2S(=O)(=O)c1cccc2cc(C)cnc12` [Compound 97, 8-[5-Methoxy-3-(3-cyclopentyloxy-4-methoxy-phenyl)-indole-1-sulfonyl]-3-methyl-quinoline]: the IC50 in experiment [1] was < 10 µM; in experiment [2], ≤ 10 µM; in experiment [3], < 10 µM; in experiment [4] it was > 10 µM.

As for `COc1ccc(-c2c(C)[nH]c3ncccc23)cc1OC` [Compound 143, 3-(3,4-Dimethoxy-phenyl)-2-methyl-1H-pyrrolo[2,3-b]pyridine], the IC50 in experiment [2] was ≤ 10 µM; in experiment [3] it was < 10 µM.

Take `COc1ccc(-c2cn(C(=O)c3cccnc3Cl)c3ncccc23)cc1OC` [Compound 59, [3-(3,4-Dimethoxy-phenyl)-pyrrolo[2,3-b]pyridin-1-yl]-(2-chloropyridin-3-yl)-methanone-amide]: the IC50 is < 10 µM in experiment [1], ≤ 10 µM in experiment [5], < 10 µM in experiment [3] and < 10 µM in experiment [4].

`COc1ccc(-c2cn(Cc3ccc(C#N)cc3)c3ncccc23)cc1OC` [Compound 77, 4-[3-(3,4-Dimethoxy-phenyl)-pyrrolo[2,3-b]pyridin-1-ylmethyl]-benzonitrile]: the IC50 in experiment [1] is < 10 µM; in experiment [5], ≤ 10 µM; in experiment [3], < 10 µM; in experiment [4], < 10 µM.

Regarding `COc1cc(NC(=O)n2cc(-c3ccc(OC)c(OC)c3)c3cccnc32)cc(OC)c1` [Compound 29, 3-(3,4-Dimethoxy-phenyl)-pyrrolo[2,3-b]pyridine-1-carboxylic acid (3,5-dimethoxy-phenyl)-amide], the IC50 was < 10 µM in experiment [1], ≤ 10 µM in experiment [5], < 10 µM in experiment [3] and < 10 µM in experiment [4].

As to `COc1ccc(-c2cn(S(=O)(=O)c3ccc(-c4cnco4)cc3)c3ncccc23)cc1OC` [Compound 70, 3-(3,4-Dimethoxy-phenyl)-1-(4-oxazol-5-yl-benzenesulfonyl)-1H-pyrrolo[2,3-b]pyridine], the IC50 in experiment [1] was < 10 µM; in experiment [5] it was ≤ 10 µM; in experiment [3] it was < 10 µM; in experiment [4] it was < 10 µM.

As to `COc1ccc(-c2cn(C(=O)c3ccccc3)c3ncccc23)cc1OC` [Compound 55, [3-(3,4-Dimethoxy-phenyl)-pyrrolo[2,3-b]pyridin-1-yl]phenylmethanone-amide], the IC50 in experiment [1] is < 10 µM; in experiment [5], ≤ 10 µM; in experiment [3] it was < 10 µM; in experiment [4], < 10 µM.
